Source: EP4144350B1, “TREATMENT OR PREVENTION OF VASCULAR MALFORMATION” (Universitätsmedizin Greifswald, priority 2021, dated 2023)

Legend:
CCM3^-/- BMECs = assay: hiPSC-derived BMEC co-culture, fluorescent imaging of clonal expansion; assay type: cell-based, human; conditions: 10 µM for six days, released, another six days under standard conditions
Method: Fluorescently tagged human induced pluripotent stem cells (Coriell Institute, Camden, NJ, USA) were maintained at 37 °C and 5 % CO2 in Essential 8 Flex medium (Thermo Fisher Scientific, Waltham, MA, USA) on plates coated with growth factor reduced matrigel (Corning Inc., Corning, NY, USA). Cells were passaged with 0.5 mM EDTA (Thermo Fisher Scientific). The following endogenously tagged cell lines as part of the Allen Cell Collection (Coriell Institute) were used: AICS-0036-006:WTC-mEGFP-Safe harbor locus (AAVS1)-cl6 and AICS-0054-091:WTC-mTagRFPT-CAAX-Safe harbor locus (AAVS1)-cl91.
CCM3^+/+ AICS-0054 hiPSCs, CCM3^+/+ and CCM3^-/- AICS-0036 hiPSCS were differentiated into human brain microvacular endothelial-like cells (hBMECs). Briefly, 158,000 cells were seeded in Essential 8 Flex medium containing 10 µM Y-27632 on growth factor reduced Matrigel-coated 6-well plates. After 24 h, differentiation was initiated by substitution of Essential 8 Flex with Essential 6 medium (Thermo Fisher Scientific). Medium was changed daily for 4 days. […] The ratio of EGFP-tagged AICS-0036 cells compared to all cells was determined using the ImageJ software. […]

caspase-3 = assay: Caspase-3 activity assay; assay type: cell-based, human
Method: The proliferation rate of mutant and wild-type ECs in monoculture was quantified with the CyQuant® Cell Proliferation Assay Kit (C7026, Thermo Fisher Scientific). To discriminate the proliferation rates of CCM3^+/+ and CCM3^-/- CI-huVEC in co-culture, the CyQuant® Cell Proliferation Assay results were combined with mutant allele frequencies that had been determined by amplicon deep sequencing. To analyse their sensitivity to apoptosis, mutant and wild-type ECs were seeded in 96-well plates with 15.000 cells per well, and treated with staurosporine (S440, Sigma-Aldrich, St. Louis, MO, USA) 24 h later. The Caspase-3 DEVD-R110 Fluorometric HTS Assay Kit (30009, Biotium, Fremont, CA, USA), the Cell Meter™ Caspase 8 Activity Apoptosis Assay Kit (22798, AAT Bioquest, Sunnyvale, CA, USA), and the Cell Meter™ Caspase 9 Activity Apoptosis Assay Kit (22799, AAT Bioquest) were used following the manufacturer's instructions.

human tumour cell lines = conditions: cited from earlier work
CCM3^-/- CI-huVECs = assay: Targeted RNA sequencing (apoptosis and cell death panel); assay type: cell-based, human; conditions: 10 µM, 24 h
Text: RNA was extracted using the PeqGold TriFast reagent (Peqlab-VWR, Radnor, PA, USA) and purified using the Direct-zol RNA MiniPrep Plus Kit (Zymo Research, Irvine, CA, USA). A Qubit 4.0 (Thermo Fisher Scientific) and the Qubit RNA BR Assay Kit (Q10211, Thermo Fisher Scientific) were used to measure RNA concentrations. RNA sample integrity was controlled on a 2100 Bioanalyzer using the RNA 6000 Nano Kit (Agilent, Santa Clara, CA, USA). A QIAseq Targeted Human Apoptosis and Cell Death RNA Panel (RHS-002Z, QIAGEN, Hilden, Germany) was used to prepare RNA sequencing libraries according to the manufacturer's instructions. After quality control with the High Sensitivity DNA Kit on a 2100 Bioanalyzer instrument (Agilent), the pooled libraries were sequenced on a MiSeq (Illumina) with 1x151 cycles. Differential gene expression of RNA sequencing data was carried out using the QIAseq Targeted RNA Primary and Secondary Analysis Tool (QIAGEN).

## CN1CCN(C(=O)/C=C/c2ccc([N+](=O)[O-])o2)CC1 [NSC59984, (E)-1-(4-methylpiperazin-1-yl)-3-(5-nitrofuran-2yl)prop-2-en-1-one]
CCM3^-/- BMECs
  Clonal expansion of CCM3^-/- BMECs in co-culture: blocked the clonal expansion of CCM3^-/- BMECs in co-culture
caspase-3; Fig. 16
  Apoptosis / caspase-3 activation: induced apoptosis at a tolerable level
caspase-3; treatment for 24 h, CCM3^+/+ and CCM3^-/- CI-huVECs (Fig. 16)
  Caspase-3 activities: did not increase caspase-3 activities
Human tumour cell lines
  Cell growth of tumour cell lines: reduce cell growth in various human tumour cell lines
  Genotoxic effects on normal cells: minimal genotoxic effects on normal cells
CCM3^-/- CI-huVECs
  Expression of CDKN1A (p21), FC (fold change NSC59984 vs. DMSO treatment): 2.33
  Expression of GADD45A, FC (fold change NSC59984 vs. DMSO treatment): 2.11
  Expression of apoptosis-related p53 target genes BBC3 (PUMA) or PMAIP1 (Noxa): unaffected
